According to ChEMBL document CHEMBL4004838, “Design and synthesis of novel phenyl -1, 4-beta-carboline-hybrid molecules as potential anticancer agents” (Eur J Med Chem, 2017):

How the values were obtained:
Format in all cases: functional
OVCAR-8 = assay: Growth inhibition of human OVCAR8 cells assessed as cell growth at 10^-5 M incubated for 48 hrs by sulforhodamine B assay relative to control; details: OVCAR-8, 48 h, read-out: Activity
KM12 = assay: Growth inhibition of human KM12 cells assessed as cell growth at 10^-5 M incubated for 48 hrs by sulforhodamine B assay relative to control; details: KM12, 48 h, read-out: Activity
SF-268 = assay: Growth inhibition of human SF268 cells assessed as cell growth at 10^-5 M incubated for 48 hrs by sulforhodamine B assay relative to control; details: SF-268, 48 h, read-out: Activity
HCT-116 = assay: Growth inhibition of human HCT116 cells assessed as cell growth at 10^-5 M incubated for 48 hrs by sulforhodamine B assay relative to control; details: HCT-116, 48 h, read-out: Activity
MCF7 = assay: Growth inhibition of human MCF7 cells assessed as cell growth at 10^-5 M incubated for 48 hrs by sulforhodamine B assay relative to control; details: MCF7, 48 h, read-out: Activity
HCC 2998 = assay: Growth inhibition of human HCC2998 cells assessed as cell growth at 10^-5 M incubated for 48 hrs by sulforhodamine B assay relative to control; details: HCC 2998, 48 h, read-out: Activity
A498 = assay: Growth inhibition of human A498 cells assessed as cell growth at 10^-5 M incubated for 48 hrs by sulforhodamine B assay relative to control; details: A498, 48 h, read-out: Activity
A549 = assay: Growth inhibition of human A549/ATCC cells assessed as cell growth at 10^-5 M incubated for 48 hrs by sulforhodamine B assay relative to control; details: A549, 48 h, read-out: Activity
EKVX = assay: Growth inhibition of human EKVX cells assessed as cell growth at 10^-5 M incubated for 48 hrs by sulforhodamine B assay relative to control; details: read-out: Activity
NCI-H23 = assay: Growth inhibition of human NCI-H23 cells assessed as cell growth at 10^-5 M incubated for 48 hrs by sulforhodamine B assay relative to control; details: NCI-H23, 48 h, read-out: Activity
TK-10 = assay: Growth inhibition of human TK10 cells assessed as cell growth at 10^-5 M incubated for 48 hrs by sulforhodamine B assay relative to control; details: TK-10, 48 h, read-out: Activity
Malme-3M = assay: Growth inhibition of human MALME-3M cells assessed as cell growth at 10^-5 M incubated for 48 hrs by sulforhodamine B assay relative to control; details: read-out: Activity
NCI-H322M = assay: Growth inhibition of human NCI-H322M cells assessed as cell growth at 10^-5 M incubated for 48 hrs by sulforhodamine B assay relative to control; details: read-out: Activity
Hs-578T = assay: Growth inhibition of human Hs 578T cells assessed as cell growth at 10^-5 M incubated for 48 hrs by sulforhodamine B assay relative to control; details: read-out: Activity
ACHN = assay: Growth inhibition of human ACHN cells assessed as cell growth at 10^-5 M incubated for 48 hrs by sulforhodamine B assay relative to control; details: read-out: Activity
LOX IMVI = assay: Growth inhibition of human LOXIMVI cells assessed as cell growth at 10^-5 M incubated for 48 hrs by sulforhodamine B assay relative to control; details: read-out: Activity
UACC-62 = assay: Growth inhibition of human UACC62 cells assessed as cell growth at 10^-5 M incubated for 48 hrs by sulforhodamine B assay relative to control; details: UACC-62, 48 h, read-out: Activity
OVCAR-5 = assay: Growth inhibition of human OVCAR5 cells assessed as cell growth at 10^-5 M incubated for 48 hrs by sulforhodamine B assay relative to control; details: OVCAR-5, 48 h, read-out: Activity
HT-29 = assay: Growth inhibition of human HT-29 cells assessed as cell growth at 10^-5 M incubated for 48 hrs by sulforhodamine B assay relative to control; details: HT-29, 48 h, read-out: Activity
OVCAR-3 = assay: Growth inhibition of human OVCAR3 cells assessed as cell growth at 10^-5 M incubated for 48 hrs by sulforhodamine B assay relative to control; details: OVCAR-3, 48 h, read-out: Activity
MOLT-4 = assay: Growth inhibition of human MOLT4 cells assessed as cell growth at 10^-5 M incubated for 48 hrs by sulforhodamine B assay relative to control; details: MOLT-4, 48 h, read-out: Activity
RXF 393 = assay: Growth inhibition of human RXF393 cells assessed as cell growth at 10^-5 M incubated for 48 hrs by sulforhodamine B assay relative to control; details: RXF 393, 48 h, read-out: Activity
NCI-H522 = assay: Growth inhibition of human NCI-H522 cells assessed as cell growth at 10^-5 M incubated for 48 hrs by sulforhodamine B assay relative to control; details: NCI-H522, 48 h, read-out: Activity
SNB-75 = assay: Growth inhibition of human SNB75 cells assessed as cell growth at 10^-5 M incubated for 48 hrs by sulforhodamine B assay relative to control; details: SNB-75, 48 h, read-out: Activity
M14 = assay: Growth inhibition of human M14 cells assessed as cell growth at 10^-5 M incubated for 48 hrs by sulforhodamine B assay relative to control; details: M14, 48 h, read-out: Activity
NCI-H226 = assay: Growth inhibition of human NCI-H226 cells assessed as cell growth at 10^-5 M incubated for 48 hrs by sulforhodamine B assay relative to control; details: NCI-H226, 48 h, read-out: Activity
SF-295 = assay: Growth inhibition of human SF295 cells assessed as cell growth at 10^-5 M incubated for 48 hrs by sulforhodamine B assay relative to control; details: SF-295, 48 h, read-out: Activity
SF-539 = assay: Growth inhibition of human SF539 cells assessed as cell growth at 10^-5 M incubated for 48 hrs by sulforhodamine B assay relative to control; details: SF-539, 48 h, read-out: Activity
MDA-MB-231 = assay: Growth inhibition of human MDA-MB-231 cells assessed as cell growth at 10^-5 M incubated for 48 hrs by sulforhodamine B assay relative to control; details: MDA-MB-231, 48 h, read-out: Activity
HCT-15 = assay: Growth inhibition of human HCT15 cells assessed as cell growth at 10^-5 M incubated for 48 hrs by sulforhodamine B assay relative to control; details: HCT-15, 48 h, read-out: Activity
U-251 = assay: Growth inhibition of human U251 cells assessed as cell growth at 10^-5 M incubated for 48 hrs by sulforhodamine B assay relative to control; details: U-251, 48 h, read-out: Activity
MDA-MB-468 = assay: Growth inhibition of human MDA-MB-468 cells assessed as cell growth at 10^-5 M incubated for 48 hrs by sulforhodamine B assay relative to control; details: MDA-MB-468, 48 h, read-out: Activity

Row | SMILES | growth at 10 µM (OVCAR-8) [%] | growth at 10 µM (KM12) [%] | growth at 10 µM (SF-268) [%] | growth at 10 µM (HCT-116) [%] | growth at 10 µM (MCF7) [%] | growth at 10 µM (HCC 2998) [%] | growth at 10 µM (A498) [%] | growth at 10 µM (A549) [%] | growth at 10 µM (EKVX) [%] | growth at 10 µM (NCI-H23) [%] | growth at 10 µM (TK-10) [%] | growth at 10 µM (Malme-3M) [%] | growth at 10 µM (NCI-H322M) [%] | growth at 10 µM (Hs-578T) [%] | growth at 10 µM (ACHN) [%] | growth at 10 µM (LOX IMVI) [%] | growth at 10 µM (UACC-62) [%] | growth at 10 µM (OVCAR-5) [%] | growth at 10 µM (HT-29) [%] | growth at 10 µM (OVCAR-3) [%] | further results
1 | c1ccc2[nH]c(-c3ccc(-c4nccc5c4[nH]c4ccccc45)cc3)nc2c1 | 4 to 16.5 | 19 to 76.6 | 52.2 | 1 to 16.3 | 17 to 30.4 | 19 to 74 | 58 to 68.7 | 21 to 45.7 | 13 to 81.2 | 18 to 69.1 | – | – | – | – | – | – | – | – | – | – | –
2 | O=Cc1ccc(C2NCCc3c2[nH]c2ccccc32)cc1 (stereo unspecified) | 105 | 107 | 101 | 78.4 | 91.9 | 104 | 86.4 | 94.7 | 89.6 | 87.1 | 115 | 100 | 97.6 | 90.5 | 95 | 88.6 | 81.2 | 100 | 98.9 | 99.7 | growth at 10 µM (MOLT-4): 95.5%; growth at 10 µM (RXF 393): 99.6%; growth at 10 µM (NCI-H522): 88%; growth at 10 µM (SNB-75): 77.8%; growth at 10 µM (M14): 89.5%; growth at 10 µM (NCI-H226): 78.2%; growth at 10 µM (SF-295): 101%; growth at 10 µM (SF-539): 103%; growth at 10 µM (MDA-MB-231): 72.1%; growth at 10 µM (HCT-15): 101%; growth at 10 µM (U-251): 95.3%; growth at 10 µM (MDA-MB-468): 88.7%
3 | Cc1ccc(S(=O)(=O)N2CCc3c([nH]c4ccccc34)C2c2ccc(C=O)cc2)cc1 (stereo unspecified) | 98.2 | 86.8 | 91.3 | 88.3 | 92.4 | 102 | 84.6 | 92.8 | 87.4 | 85.7 | 98 | 89.7 | 87.7 | 89.2 | 79.1 | 85.5 | 65 | 78.7 | 87.2 | 93.5 | growth at 10 µM (MOLT-4): 95.9%; growth at 10 µM (RXF 393): 96.4%; growth at 10 µM (NCI-H522): 60.3%; growth at 10 µM (SNB-75): 74%; growth at 10 µM (M14): 85.8%; growth at 10 µM (NCI-H226): 86.4%; growth at 10 µM (SF-295): 91.9%; growth at 10 µM (SF-539): 90.2%; growth at 10 µM (MDA-MB-231): 73.4%; growth at 10 µM (HCT-15): 94.3%; growth at 10 µM (U-251): 98%; growth at 10 µM (MDA-MB-468): 102%
4 | c1ccc2c(c1)[nH]c1c(-c3ccc(-c4nccc5c4[nH]c4ccccc45)cc3)nccc12 | 111 | 99.1 | 105 | 88.2 | 88.4 | 102 | 145 | 115 | 89.5 | 77.7 | 105 | 92.5 | 104 | 97.7 | 99.5 | 89.4 | 105 | 110 | 88.9 | 101 | growth at 10 µM (MOLT-4): 97%; growth at 10 µM (RXF 393): 111%; growth at 10 µM (NCI-H522): 84.7%; growth at 10 µM (SNB-75): 82.5%; growth at 10 µM (M14): 99.3%; growth at 10 µM (NCI-H226): 90.7%; growth at 10 µM (SF-295): 105%; growth at 10 µM (SF-539): 109%; growth at 10 µM (MDA-MB-231): 111%; growth at 10 µM (HCT-15): 99.7%; growth at 10 µM (U-251): 107%; growth at 10 µM (MDA-MB-468): 105%
5 | c1ccc2[nH]c(-c3ccc(C4NCCc5c4[nH]c4ccccc54)cc3)nc2c1 (stereo unspecified) | 99.2 | 103 | 98.6 | 96.1 | 96.7 | 107 | 104 | 82.9 | 103 | 102 | 94.6 | 90 | 92.8 | 93.9 | 102 | 98 | 86.3 | 94.2 | 94.2 | 107 | growth at 10 µM (MOLT-4): 107%; growth at 10 µM (RXF 393): 94.2%; growth at 10 µM (NCI-H522): 83.5%; growth at 10 µM (SNB-75): 89%; growth at 10 µM (M14): 96.6%; growth at 10 µM (NCI-H226): 93.5%; growth at 10 µM (SF-295): 107%; growth at 10 µM (SF-539): 102%; growth at 10 µM (MDA-MB-231): 92.2%; growth at 10 µM (HCT-15): 107%; growth at 10 µM (U-251): 93.4%; growth at 10 µM (MDA-MB-468): 94.7%
6 | Cc1n[nH]c2c1C(c1ccc(C3NCCc4c3[nH]c3ccccc43)cc1)C(C#N)=C(N)O2 (stereo unspecified) | 104 | 91.9 | 92.9 | 76.5 | 78.8 | 105 | 67.1 | 84.9 | 83.6 | 87.7 | 101 | 77 | 97.7 | 87.7 | 83.5 | 80.6 | 57.8 | 87.4 | 91.7 | 96.6 | growth at 10 µM (MOLT-4): 81.1%; growth at 10 µM (RXF 393): 99.2%; growth at 10 µM (NCI-H522): 81.8%; growth at 10 µM (SNB-75): 70.4%; growth at 10 µM (M14): 86.7%; growth at 10 µM (NCI-H226): 87%; growth at 10 µM (SF-295): 86.9%; growth at 10 µM (SF-539): 92%; growth at 10 µM (MDA-MB-231): 77.6%; growth at 10 µM (HCT-15): 87.7%; growth at 10 µM (U-251): 87.5%; growth at 10 µM (MDA-MB-468): 92.7%
7 | c1ccc2c3c([nH]c2c1)C(c1ccc(C2NCCc4c2[nH]c2ccccc42)cc1)NCC3 (racemic) | -41.5 | – | – | – | – | – | – | – | – | – | – | – | – | – | – | – | – | – | – | – | –
